Measurements reported in patent publication US9708336B2, “Metallo-beta-lactamase inhibitors” (priority 2014, dated 2017).
Read-outs that look alike come from different tables or passages of the source.

Legend:
VIM-1 = VIM-1 (Pseudomonas aeruginosa (strain ATCC 15692 / DSM 22644 / CIP 104116 / JCM 14847 / LMG 12228 / 1C / PRS 101 / PAO1), UniProt A0A0F7KYQ8); test: Enzyme activity: determination of IC50, fluorescence assay with CCF2-FA substrate (VIM-1); type: biochemical
[1] = test system: Serratia marcescens expressing IMP-1 (CL5741); test: Antibiotic potentiation activity: synergistic concentration (MITC95) with imipenem, OD600 growth; type: cell-based; conditions: for Serratia marcescens MITC95: Serratia marcescens expressing IMP-1 (CL5741), 95% growth inhibition; for Serratia marcescens expressing IMP-1 (CL5741) MITC95: concentration giving 95% inhibition of bacterial growth
Method in brief: (§1)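 In 1.1× CAMHB, clinical isolates from overnight plates were challenged with test compound alongside imipenem at an assay concentration of 4 μg/ml, sometimes 1 μg/ml. Plates sat covered at 35 °C for 22–24 h prior to spectrophotometric reading.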

[2] = test system: Klebsiella pneumoniae expressing VIM-1 (IHMA599644); test: as above; type: cell-based; conditions: for Klebsiella pneumoniae MITC95: Klebsiella pneumoniae expressing VIM-1 (IHMA599644), 95% growth inhibition; for Klebsiella pneumoniae expressing VIM-1 (IHMA 599644) MITC95: concentration giving 95% inhibition of bacterial growth
Method in brief: as §1

[3] = test system: Escherichia coli expressing NDM-1 (CLB30005); test: as above; type: cell-based; conditions: for Escherichia coli MITC95: Escherichia coli expressing NDM-1 (CLB30005), 95% growth inhibition; for Escherichia coli expressing NDM-1 (CLB 30005) MITC95: concentration giving 95% inhibition of bacterial growth
Method in brief: as §1

IMP-1 = IMP-1 (Serratia marcescens, UniProt P52699); test: biochemical; type: biochemical; conditions: read-out: IMP-1 IC50
NDM-1 = NDM-1 (Klebsiella pneumoniae, UniProt C7C422); test: biochemical; type: biochemical; conditions: read-out: NDM-1 IC50
[4] = VIM-1 enzyme, CCF2-FA fluorescence assay, read-out: VIM-1 IC50
[5] = IMP-1 enzyme, CCF2-FA fluorescence assay
[6] = NDM-1 enzyme, CCF2-FA fluorescence assay
[7] = fluorescence assay with CCF2-FA substrate, read-out: VIM-1 IC50
[8] = fluorescence assay with CCF2-FA substrate
[9] = VIM-1 IC50, fluorescence assay with CCF2-FA substrate

Chain of NDM-1 (C7C422 whole entry, looked up, species assumed): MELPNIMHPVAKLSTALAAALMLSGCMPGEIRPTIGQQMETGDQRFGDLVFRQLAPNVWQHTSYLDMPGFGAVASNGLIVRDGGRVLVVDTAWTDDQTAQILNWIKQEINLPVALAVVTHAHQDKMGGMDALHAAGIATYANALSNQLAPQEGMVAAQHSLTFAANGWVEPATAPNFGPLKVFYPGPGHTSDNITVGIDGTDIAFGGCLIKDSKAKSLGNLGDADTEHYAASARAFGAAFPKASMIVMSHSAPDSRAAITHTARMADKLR
Chain of IMP-1 (P52699 whole entry, looked up): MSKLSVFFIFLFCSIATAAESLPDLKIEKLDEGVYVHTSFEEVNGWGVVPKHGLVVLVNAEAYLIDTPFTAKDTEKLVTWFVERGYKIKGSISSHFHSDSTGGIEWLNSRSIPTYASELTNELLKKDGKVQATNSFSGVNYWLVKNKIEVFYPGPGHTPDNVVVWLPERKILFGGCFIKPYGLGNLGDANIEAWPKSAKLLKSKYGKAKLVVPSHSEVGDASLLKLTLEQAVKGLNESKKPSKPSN

Row | Structure (SMILES) | IC50 (VIM-1; [4]) [nM] | Serratia marcescens MITC95 [1] [µM] | Klebsiella pneumoniae MITC95 [2] [µM] | Escherichia coli MITC95 [3] [µM] | IC50 (IMP-1; [5]) [nM] | IC50 (NDM-1; [6]) [nM] | IC50 (VIM-1; [7]) [nM] | Serratia marcescens expressing IMP-1 (CL5741) MITC95 [1] [µM] | Klebsiella pneumoniae expressing VIM-1 (IHMA 599644) MITC95 [2] [µM] | Escherichia coli expressing NDM-1 (CLB 30005) MITC95 [3] [µM] | IC50 (IMP-1; [8]) [nM] | IC50 (NDM-1; [8]) [nM] | IC50 (VIM-1; [9]) [nM]
1 | Cc1ccc(-c2cc(-c3cccc(C(N)=O)c3)cc(S(N)(=O)=O)c2-c2nn[nH]n2)cc1 [Example 295, 4″-methyl-5′-sulfamoyl-4′-(2H-tetrazol-5-yl)-[1,1′:3′,1″-terphenyl]-3-carboxamide] | 126 | 1.563 | >200 | 1.953 | 16.1 | 0.637 |  |  |  |  |  |  | 
2 | NS(=O)(=O)c1nccc(-c2ccc(C3CCNC3)cc2)c1-c1nnn[nH]1 (stereo not drawn) [Example 198, 4-(4-(pyrrolidin-3-yl)phenyl)-3-(1H-tetrazol-5-yl)pyridine-2-sulfonamide] |  |  |  |  |  |  | 101 | 3.125 | 2.344 | 0.3906 | 1170 | 68.4 | 
3 | COC(=O)c1ccc(-c2ccnc(S(N)(=O)=O)c2-c2nnn[nH]2)cc1 [Example 182, Methyl 4-(2-sulfamoyl-3-(1H-tetrazol-5-yl)pyridin-4-yl)benzoate] |  |  |  |  |  |  |  | 100 | 200 | 4.688 | 348 | 32.4 | 91.4
4 | NS(=O)(=O)c1ccnc(-c2ccc(CO)cc2)c1-c1nnn[nH]1 [Example 188, 2-(4-(Hydroxymethyl)phenyl)-3-(1H-tetrazol-5-yl)pyridine-4-sulfonamide] |  |  |  |  |  |  | 4130 | 37.5 | >200 | 2.344 | 768 | 36.5 | 
5 | NS(=O)(=O)c1cccc(-c2ccc(C(O)C(F)F)cc2)c1-c1nnn[nH]1 (stereo not drawn) [Example 24, 4′-(2,2-difluoro-1-hydroxyethyl)-2-(1H-tetrazol-5-yl)biphenyl-3-sulfonamide] |  |  |  |  |  |  | 124 | 3.125 | 150 | 1.563 | 17.8 | 3.65 | 
6 | Cc1ccc(-c2cccc(S(N)(=O)=O)c2-c2nnn[nH]2)nc1 [Example 398, 3-(5-Methylpyridin-2-yl)-2-(1H-tetrazol-5-yl)benzenesulfonamide] | 312 | 50 | 100 | 1.563 | 1210 | 43 |  |  |  |  |  |  | 
7 | NS(=O)(=O)c1nccc(-c2ccc(CO)nc2)c1-c1nnn[nH]1 [Example 195, 6-(hydroxymethyl)-3′-(1H-tetrazol-5-yl)-[3,4′-bipyridine]-2′-sulfonamide] |  |  |  |  |  |  | 291 | 50 | 12.5 | 0.3906 | 2630 | 78.5 | 
8 | NCc1ccc(-c2cccc(S(N)(=O)=O)c2-c2nnn[nH]2)cn1 [Example 306, 3-(6-(aminomethyl)pyridin-3-yl)-2-(1H-tetrazol-5-yl)benzenesulfonamide] | 300 | 50 | 25 | 1.172 | 3740 | 104 |  |  |  |  |  |  | 
9 | Cc1ccc(-c2cc(-c3ccc4c(c3)CNC4=O)cc(S(N)(=O)=O)c2-c2nn[nH]n2)cc1 [Example 290, 4′-Methyl-5-(1-oxoisoindolin-5-yl)-2-(2H-tetrazol-5-yl)-[1,1′-biphenyl]-3-sulfonamide] | 34.3 | 19.53 | >200 | 3.516 | 19.7 | 0.637 |  |  |  |  |  |  | 
10 | Cc1ccc(-c2cc(-c3ccc(O)nc3)cc(S(N)(=O)=O)c2-c2nn[nH]n2)cc1 [Example 292, 5-(6-hydroxypyridin-3-yl)-4′-methyl-2-(2H-tetrazol-5-yl)-[1,1′-biphenyl]-3-sulfonamide] | 193 | 18.75 | >200 | 3.516 | 416 | 3.65 |  |  |  |  |  |  | 
11 | CN(C)CCNC(=O)c1ccc(-c2cccc(S(N)(=O)=O)c2-c2nn[nH]n2)cc1 [Example 87, N-[2-(dimethylamino)ethyl]-3′-sulfamoyl-2′-(2H-tetrazol-5-yl)biphenyl-4-carboxamide] |  |  |  |  |  |  | 2090 | 18.75 | 200 | 3.906 | 908 | 95.5 | 
12 | Cc1ccc(-c2cc(-c3ccc(C(N)=O)cc3)cc(S(N)(=O)=O)c2-c2nn[nH]n2)cc1 [Example 296, 4″-methyl-5′-sulfamoyl-4′-(2H-tetrazol-5-yl)-[1,1′:3′,1″-terphenyl]-4-carboxamide] | 127 | 3.125 | >200 | 1.953 | 54.8 | 0.637 |  |  |  |  |  |  | 
13 | NS(=O)(=O)c1cccc(-c2cnn(Cc3ccccn3)c2)c1-c1nn[nH]n1 [Example 101, 3-[1-(pyridin-2-ylmethyl)-1H-pyrazol-4-yl]-2-(2H-tetrazol-5-yl)benzenesulfonamide] |  |  |  |  |  |  | 111 | 14.06 | 125 | 3.906 | 517 | 40.9 | 
14 | NS(=O)(=O)c1cccc(C2CCCNC2)c1-c1nn[nH]n1 (stereo not drawn) [Example 175, 3-(piperidin-3-yl)-2-(2H-tetrazol-5-yl)benzenesulfonamide] |  |  |  |  |  |  | 3090 | 37.5 | 75 | 0.7813 | 12400 | 552 | 
15 | NS(=O)(=O)c1cccc(-c2cccs2)c1-c1nn[nH]n1 [Example 20, 2-(2H-tetrazol-5-yl)-3-thiophen-2-ylbenzenesulfonamide] |  |  |  |  |  |  | 362 | 18.75 | 166.7 | 1.823 | 331 | 20.4 | 
16 | NS(=O)(=O)c1cccc(-c2ccc(O)nc2)c1-c1nn[nH]n1 [Example 80, 3-(6-hydroxypyridin-3-yl)-2-(2H-tetrazol-5-yl)benzenesulfonamide] |  |  |  |  |  |  |  | 50 | 25 | 0.3906 | 2380 | 81.8 | 542
17 | CC(c1ccc(-c2cccc(S(N)(=O)=O)c2-c2nn[nH]n2)cc1)N1CCOCC1 (stereo not drawn) [Example 4, 4′-(1-morpholin-4-ylethyl)-2-(2H-tetrazol-5-yl)biphenyl-3-sulfonamide] |  |  |  |  |  |  | 196 | 6.25 | >200 | 0.7813 | 11.3 | 2.84 | 
18 | CS(=O)(=O)CCn1cc(-c2cccc(S(N)(=O)=O)c2-c2nn[nH]n2)cn1 [Example 54, 3-{1-[2-(methylsulfonyl)ethyl]-1H-pyrazol-4-yl}-2-(2H-tetrazol-5-yl)benzenesulfonamide] |  |  |  |  |  |  | 937 | 18.75 | >200 | 2.344 | 205 | 42.3 | 
19 | NS(=O)(=O)c1cccc(-c2ccc(CO)nc2)c1-c1nnn[nH]1 [Example 258, 3-(6-(Hydroxymethyl)pyridin-3-yl)-2-(1H-tetrazol-5-yl)benzenesulfonamide] | 147 | 37.5 | 15.63 | 1.302 | 888 | 12.9 |  |  |  |  |  |  | 
20 | NS(=O)(=O)c1cccc(-c2cccc(-n3nccn3)c2)c1-c1nn[nH]n1 [Example 70, 2-(2H-tetrazol-5-yl)-3′-(2H-1,2,3-triazol-2-yl)biphenyl-3-sulfonamide] |  |  |  |  |  |  | 28.9 | 18.75 | 150 | 1.563 | 105 | 2 | 
21 | Cc1ccccc1-c1ccnc(S(N)(=O)=O)c1-c1nn[nH]n1 [Example 210, 3-(2H-tetrazol-5-yl)-4-(o-tolyl)pyridine-2-sulfonamide] |  |  |  |  |  |  | 25.5 | 25 | 15.63 | 0.5208 | 421 | 11.8 | 
